Measurements: US9493460B2, “Diimide compounds” (UCL BUSINESS PLC, priority 2013, dated 2016)

Assays:
[1] = system: Mia-Paca2 human pancreatic tumour xenografts; assay: MiaPaca-2 tumour xenograft; format: in vivo, CD1 nu/nu female mice
Description: CD1 nu/nu female mice (7-8 weeks old) were housed in microisolator cages, fed with commercial mouse food (Food Harlam 2018, Madison, USA) and allowed to acclimatise for seven days before any procedure. Exponentially growing MiaPaca-2 cells (5×10^6 cell/100 uL unsupplemented RPMI) were inoculated subcutaneously into the right flank (100 uL per mice). Measurements of tumour growth were carried out at least twice a week with digital callipers until tumour masses reached an average size of 0.1 cm^3. Tumour volume was calculated by using the standard formula for determining the volume of an ellipsoid ([length×width×depth×π]/6)).
(§1) In a first experiment, mice were allocated into groups (six mice per group) as follows: control group (IV 100 uL/10g sterile PBS) and single dose of 20 mg/kg of 3d (IV 100 uL/10 g body weight in sterile PBS).
(§2) In a subsequent experiment using CD1 nu/nu female mice as described above, mice were allocated into groups (six mice per group) as follows: control group (IV 100 uL/10 g sterile PBS) and 3d at 15 mg/kg given once weekly. […] In the control group the median time to endpoint was 42 days compared to 79 days in the treated group.

[2] = Tolerability and body weight in xenograft study; format: in vivo
Description: as §1, §2

Mia-PaCa2 cells = assay: Senescence β-galactosidase staining; format: cell-based, human; settings: 7 days treatment
Description: FIG. 4. Micrographs showing the results of staining for evidence of cellular senescence in MiaPaCa2 cells using the β-galactosidase assay. Senescent cells are coloured blue in this procedure. Staining was performed after seven days treatments with (a) vehicle control, ×100 magnification, (b) 3.3 nM of compound 3d, ×200 magnification, (c) 6.6 nM of compound 3d, ×200 magnification, (d) 50 nM of compound 4, ×200 magnification, (e) plot of the percentage of senescent cells at the indicated concentrations of compounds 3d and 4, compared to the background senescence in this cell line (with vehicle control only). Cell counts were performed in triplicate and error bars represent estimated standard deviations.
Senescence detection and quantification experiments were carried out using the Senescence β-galactosidase staining kit (Cell Signalling Technology, MA, USA) according to the manufacturer's protocol. Briefly, 1×10^5 cells were seeded in 6-well plates in 2 ml of medium supplemented with the test compound and incubated for 24 h. Cells were washed (2 ml PBS), fixed (2% formaldehyde and 2% glutaraldehyde in PBS, 15 min, room temperature) and washed (2×2 ml PBS) before staining overnight. Senescent cells, detected by their blue pigmentation, were counted using a light microscope.
CDKN1A encodes the cyclin-dependent kinase p21WAF1 that induces replicative senescence, which is a well-studied consequence of telomerase inhibition and telomere maintenance disruption. […] Compounds 3b and 3d behaved in a similar manner to each other, with concentrations of 3-4 nM being sufficient to result in ˜50-60% of cells becoming senescent after this time-course.

A549 (lung) cells = assay: SRB growth inhibition assay, 96 hr exposure, A549; format: cell-based, human; settings: Homo sapiens, A549, 96 h exposure
Method in brief: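 SRB growth inhibition was measured after 96 h exposure to 2-fold serial dilutions of compound, with cells maintained at 37 °C in 5% CO2 and medium containing 10% FBS. Absorbance at 540 nm was expressed as a percentage of untreated control wells. IC50 was derived from these values.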

[3] = Pharmacokinetics after bolus IV injection; format: in vivo, Balb/c female mice; settings: bolus IV 20 mg/kg, mice
Source text: Balb/c female mice (7-8 weeks old) were housed in microisolator cages, fed with commercial mouse food (Food Harlam 2018, Madison, USA) and allowed to acclimatise for seven days before any procedure.

[4] = system: MiaPaCa2 (pancreatic) cells; assay: SRB growth inhibition assay, MiaPaCa2; format: cell-based, human
Method in brief: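 Growth inhibition of MiaPaCa2 cells was measured by SRB staining after 96 h exposure to 2-fold serial dilutions of compound dissolved in DMSO. IC50 was derived from mean absorbance at 540 nm expressed as a percentage of untreated control wells.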

CN1CCN(CCCNc2cc3c4c(c(NCCCN5CCN(C)CC5)cc5c4c2C(=O)N(CCCN2CCOCC2)C5=O)C(=O)N(CCCN2CCOCC2)C3=O)CC1 [Compound 3d, 4,9-bis((3-(4-methylpiperazin-1-yl)propyl)amino)-2,7-bis(3-morpholinopropyl)benzo[lmn][3,8]phenanthroline-1,3,6,8(2H,7H)-tetraone]
antitumour response ([1]; 15 mg/kg once weekly): sustained antitumour response | median time to endpoint ([1]; 15 mg/kg once weekly, control group 42 days): 79 days | mice with a complete response, tumour free at 136 days ([1]; 15 mg/kg once weekly, of six mice): two | tumour growth compared to untreated controls ([1]; single dose 20 mg/kg IV): significant growth delay | tolerability of therapy ([2]; 15 mg/kg once weekly): well tolerated | bodyweight loss ([2]; single dose 20 mg/kg or 15 mg/kg once weekly): without any significant bodyweight loss | induction of senescence (in words) (Mia-PaCa2 cells): strong induction of senescence | potency as inducer of cellular senescence relative to compound 4 (Mia-PaCa2 cells): ~10 fold | IC50 (A549 (lung) cells): 10 to 20 nM | drug level at 24 hours [3]: no detectable drug | Cmax ([3]; female, Balb/c, mouse, in vivo): 1600 nM | half-life ([3]; female, Balb/c, mouse, in vivo): 4 h | selectivity for Mia-PaCa2 compared to the normal fibroblast line WI-38 [4]: ~20 fold | IC50 ([4]; Homo sapiens, MIA PaCa-2, SRB assay, 96 h exposure, read-out: IC50 Mia-PaCa2): 10 to 20 nM | growth response of MiaPaCa2 cells ([4]; exposure to 80 nM): no growth recovery | growth response of MiaPaCa2 cells ([4]; exposure to 160 nM): no viable cells could be recovered by 72 h | growth response of MiaPaCa2 cells ([4]; exposure to between 5 nM and 40 nM): titratable growth inhibition with subsequent full recovery of confluent growth at 144 h
